From PubChem BioAssay (NCI)
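Test compounds were applied to cells in 96-well plates for 48 hours at 5 doses. The concentration for full growth arrest is given as TGI.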

Experiments:
Experiment in all cases: growth of human tumour cells (NCI), 48 h
MCF7 breast = system: MCF7 breast
SK-MEL-28 melanoma = system: SK-MEL-28 melanoma
SF-539 CNS = system: SF-539 CNS
SR leukemia = system: SR leukemia
RXF 393 renal = system: RXF 393 renal
UO-31 renal = system: UO-31 renal
MDA-N = system: MDA-N
OVCAR-3 ovarian = system: OVCAR-3 ovarian
MDA-MB-231 breast = system: MDA-MB-231 breast
K-562 leukemia = system: K-562 leukemia
COLO 205 colon = system: COLO 205 colon
SK-OV-3 ovarian = system: SK-OV-3 ovarian
IGROV1 ovarian = system: IGROV1 ovarian
NCI-H226 lung = system: NCI-H226 lung
MDA-MB-435 = system: MDA-MB-435
LOX IMVI melanoma = system: LOX IMVI melanoma
T-47D breast = system: T-47D breast
BT-549 breast = system: BT-549 breast
HCT-15 colon = system: HCT-15 colon
OVCAR-8 ovarian = system: OVCAR-8 ovarian
NCI/ADR-RES ovarian = system: NCI/ADR-RES ovarian
A498 renal = system: A498 renal
HS 578T breast = system: HS 578T breast
TK-10 renal = system: TK-10 renal
HT29 colon = system: HT29 colon
A549 NSCLC = system: A549 NSCLC
EKVX NSCLC = system: EKVX NSCLC
UACC-257 melanoma = system: UACC-257 melanoma
PC-3 prostate = system: PC-3 prostate
NCI-H23 lung = system: NCI-H23 lung
HL-60(TB) leukemia = system: HL-60(TB) leukemia
U251 CNS = system: U251 CNS
SF-295 CNS = system: SF-295 CNS
NCI-H460 lung = system: NCI-H460 lung
M14 melanoma = system: M14 melanoma
OVCAR-5 ovarian = system: OVCAR-5 ovarian
SN12C renal = system: SN12C renal
MALME-3M melanoma = system: MALME-3M melanoma
SK-MEL-2 melanoma = system: SK-MEL-2 melanoma
HOP-92 NSCLC = system: HOP-92 NSCLC
HCC-2998 colon = system: HCC-2998 colon
HCT-116 colon = system: HCT-116 colon
CCRF-CEM leukemia = system: CCRF-CEM leukemia
SW-620 colon = system: SW-620 colon
KM12 colon = system: KM12 colon
DU-145 prostate = system: DU-145 prostate
RPMI-8226 leukemia = system: RPMI-8226 leukemia
UACC-62 melanoma = system: UACC-62 melanoma
OVCAR-4 ovarian = system: OVCAR-4 ovarian
SK-MEL-5 melanoma = system: SK-MEL-5 melanoma
CAKI-1 renal = system: CAKI-1 renal
SF-268 CNS = system: SF-268 CNS
SNB-19 CNS = system: SNB-19 CNS
MOLT-4 leukemia = system: MOLT-4 leukemia
786-0 renal = system: 786-0 renal
HOP-62 NSCLC = system: HOP-62 NSCLC
ACHN renal = system: ACHN renal
SNB-75 CNS = system: SNB-75 CNS
NCI-H522 lung = system: NCI-H522 lung

## O=C1COc2ccc([N+](=O)[O-])cc2C(=O)C1
MCF7 breast
  TGI: > 10 µM
SK-MEL-28 melanoma
  TGI: > 10 µM
SF-539 CNS
  TGI: > 10 µM
SR leukemia
  TGI: > 10 µM
RXF 393 renal
  TGI: > 10 µM
UO-31 renal
  TGI: > 10 µM
MDA-N
  TGI: > 10 µM
OVCAR-3 ovarian
  TGI: > 10 µM
MDA-MB-231 breast
  TGI: > 10 µM
K-562 leukemia
  TGI: > 10 µM
COLO 205 colon
  TGI: > 10 µM
SK-OV-3 ovarian
  TGI: > 10 µM
IGROV1 ovarian
  TGI: > 10 µM
NCI-H226 lung
  TGI: > 10 µM
MDA-MB-435
  TGI: > 10 µM
LOX IMVI melanoma
  TGI: > 10 µM
T-47D breast
  TGI: > 10 µM
BT-549 breast
  TGI: > 10 µM
HCT-15 colon
  TGI: > 10 µM
OVCAR-8 ovarian
  TGI: > 10 µM
NCI/ADR-RES ovarian
  TGI: > 10 µM
A498 renal
  TGI: > 10 µM
HS 578T breast
  TGI: > 10 µM
TK-10 renal
  TGI: > 10 µM
HT29 colon
  TGI: > 10 µM
A549 NSCLC
  TGI: > 10 µM
EKVX NSCLC
  TGI: > 10 µM
UACC-257 melanoma
  TGI: > 10 µM
PC-3 prostate
  TGI: > 10 µM
NCI-H23 lung
  TGI: > 10 µM
HL-60(TB) leukemia
  TGI: > 10 µM
U251 CNS
  TGI: > 10 µM
SF-295 CNS
  TGI: > 10 µM
NCI-H460 lung
  TGI: > 10 µM
M14 melanoma
  TGI: > 10 µM
OVCAR-5 ovarian
  TGI: > 10 µM
SN12C renal
  TGI: > 10 µM
MALME-3M melanoma
  TGI: > 10 µM
SK-MEL-2 melanoma
  TGI: > 10 µM
HOP-92 NSCLC
  TGI: > 10 µM
HCC-2998 colon
  TGI: > 10 µM
HCT-116 colon
  TGI: > 10 µM
CCRF-CEM leukemia
  TGI: > 10 µM
SW-620 colon
  TGI: > 10 µM
KM12 colon
  TGI: > 10 µM
DU-145 prostate
  TGI: > 10 µM
RPMI-8226 leukemia
  TGI: > 10 µM
UACC-62 melanoma
  TGI: > 10 µM
OVCAR-4 ovarian
  TGI: > 10 µM
SK-MEL-5 melanoma
  TGI: > 10 µM
CAKI-1 renal
  TGI: > 10 µM
SF-268 CNS
  TGI: > 10 µM
SNB-19 CNS
  TGI: > 10 µM
MOLT-4 leukemia
  TGI: > 10 µM
786-0 renal
  TGI: > 10 µM
HOP-62 NSCLC
  TGI: > 10 µM
ACHN renal
  TGI: > 10 µM

## [N-]=[N+]=NCc1cccc(Nc2cc(=O)[nH]c(=O)[nH]2)c1
MCF7 breast
  TGI: > 100 µM
SK-MEL-28 melanoma
  TGI: > 100 µM
SF-539 CNS
  TGI: > 100 µM
SR leukemia
  TGI: > 100 µM
RXF 393 renal
  TGI: > 100 µM
UO-31 renal
  TGI: > 100 µM
MDA-N
  TGI: > 100 µM
OVCAR-3 ovarian
  TGI: > 100 µM
K-562 leukemia
  TGI: > 100 µM
COLO 205 colon
  TGI: > 100 µM
SK-OV-3 ovarian
  TGI: > 100 µM
IGROV1 ovarian
  TGI: > 100 µM
NCI-H226 lung
  TGI: > 100 µM
MDA-MB-435
  TGI: > 100 µM
LOX IMVI melanoma
  TGI: > 100 µM
T-47D breast
  TGI: > 100 µM
BT-549 breast
  TGI: > 100 µM
HCT-15 colon
  TGI: > 100 µM
OVCAR-8 ovarian
  TGI: > 100 µM
NCI/ADR-RES ovarian
  TGI: > 100 µM
SNB-75 CNS
  TGI: > 100 µM
A498 renal
  TGI: > 100 µM
HS 578T breast
  TGI: > 100 µM
TK-10 renal
  TGI: > 100 µM
HT29 colon
  TGI: > 100 µM
A549 NSCLC
  TGI: > 100 µM
EKVX NSCLC
  TGI: > 100 µM
UACC-257 melanoma
  TGI: > 100 µM
NCI-H23 lung
  TGI: > 100 µM
HL-60(TB) leukemia
  TGI: > 100 µM
SF-295 CNS
  TGI: > 100 µM
M14 melanoma
  TGI: > 100 µM
OVCAR-5 ovarian
  TGI: > 100 µM
SN12C renal
  TGI: > 100 µM
MALME-3M melanoma
  TGI: > 100 µM
SK-MEL-2 melanoma
  TGI: > 100 µM
HOP-92 NSCLC
  TGI: > 100 µM
HCC-2998 colon
  TGI: > 100 µM
HCT-116 colon
  TGI: > 100 µM
CCRF-CEM leukemia
  TGI: > 100 µM
SW-620 colon
  TGI: > 100 µM
KM12 colon
  TGI: > 100 µM
DU-145 prostate
  TGI: > 100 µM
RPMI-8226 leukemia
  TGI: > 100 µM
UACC-62 melanoma
  TGI: > 100 µM
SK-MEL-5 melanoma
  TGI: > 100 µM
CAKI-1 renal
  TGI: > 100 µM
SF-268 CNS
  TGI: > 100 µM
SNB-19 CNS
  TGI: > 100 µM
MOLT-4 leukemia
  TGI: > 100 µM
NCI-H522 lung
  TGI: > 100 µM
786-0 renal
  TGI: > 100 µM
HOP-62 NSCLC
  TGI: > 100 µM
ACHN renal
  TGI: > 100 µM

## CN(C)Cc1cc(O)c(O)c(CN(C)C)c1
MCF7 breast
  TGI: > 100 µM
SK-MEL-28 melanoma
  TGI: > 100 µM
RXF 393 renal
  TGI: > 100 µM
UO-31 renal
  TGI: > 100 µM
MDA-N
  TGI: > 100 µM
OVCAR-3 ovarian
  TGI: > 100 µM
MDA-MB-231 breast
  TGI: > 100 µM
K-562 leukemia
  TGI: > 100 µM
COLO 205 colon
  TGI: > 100 µM
SK-OV-3 ovarian
  TGI: > 100 µM
IGROV1 ovarian
  TGI: > 100 µM
NCI-H226 lung
  TGI: > 100 µM
MDA-MB-435
  TGI: > 100 µM
LOX IMVI melanoma
  TGI: > 100 µM
T-47D breast
  TGI: > 100 µM
BT-549 breast
  TGI: > 100 µM
HCT-15 colon
  TGI: > 100 µM
OVCAR-8 ovarian
  TGI: > 100 µM
NCI/ADR-RES ovarian
  TGI: 65.9 µM
SNB-75 CNS
  TGI: > 100 µM
A498 renal
  TGI: > 100 µM
HS 578T breast
  TGI: > 100 µM
TK-10 renal
  TGI: > 100 µM
HT29 colon
  TGI: > 100 µM
A549 NSCLC
  TGI: > 100 µM
EKVX NSCLC
  TGI: 71.5 µM
UACC-257 melanoma
  TGI: 45.9 µM
PC-3 prostate
  TGI: > 100 µM
NCI-H23 lung
  TGI: > 100 µM
HL-60(TB) leukemia
  TGI: 92 µM
U251 CNS
  TGI: > 100 µM
SF-295 CNS
  TGI: > 100 µM
NCI-H460 lung
  TGI: 52.5 µM
M14 melanoma
  TGI: 59.3 µM
OVCAR-5 ovarian
  TGI: > 100 µM
SN12C renal
  TGI: > 100 µM
MALME-3M melanoma
  TGI: > 100 µM
SK-MEL-2 melanoma
  TGI: > 100 µM
HOP-92 NSCLC
  TGI: > 100 µM
HCC-2998 colon
  TGI: 81.8 µM
HCT-116 colon
  TGI: > 100 µM
CCRF-CEM leukemia
  TGI: 61.8 µM
SW-620 colon
  TGI: > 100 µM
KM12 colon
  TGI: > 100 µM
DU-145 prostate
  TGI: > 100 µM
RPMI-8226 leukemia
  TGI: > 100 µM
UACC-62 melanoma
  TGI: > 100 µM
OVCAR-4 ovarian
  TGI: > 100 µM
SK-MEL-5 melanoma
  TGI: > 100 µM
CAKI-1 renal
  TGI: > 100 µM
SF-268 CNS
  TGI: > 100 µM
SNB-19 CNS
  TGI: > 100 µM
MOLT-4 leukemia
  TGI: > 100 µM
NCI-H522 lung
  TGI: > 100 µM
786-0 renal
  TGI: > 100 µM
HOP-62 NSCLC
  TGI: > 100 µM
ACHN renal
  TGI: > 100 µM
